Experimental data taken from US20070275887A1, “Method of Inhibiting Secretase Activity” (priority 2003, published 2007).
Non-standard residues stand in square brackets, D forms with d. Residues, ends and D or L forms follow the SMILES beside them. *: point of attachment. Nle = CCCC[C@H](N)C(=O)O; Cbz = O=C(OCc1ccccc1)*

B1: HA-tagged Herp(-bind) (other)
chain: MESETEPEPVTLLVKSPNQRHRDLELSGDRGWSVGHLKAHLSRVYPERPRPEDQRLIYSGKLLLDHQCLRDLLPKQEKRHVLHLVCNVKSPSKMPEINAKVAESTEEPAGSNRGQYPEDSSSDGLRQREVLRNLSSPGWENISRPEAAQQAFQGLGPGFSAQEIPVVSAPAPAPIHNQFPAENQPANQNAAPQVVVNPGANQNLRMNAQGGPIVEEDDEINRDWLDWTYSAATFSVFLSILYFYSSLSRFLMVMGATVVMYLHHVGWFPFRPRPVQNFPNDGPPPDVVNQDPNNNLQEGTDPETEDPNHLPPDRDVLDGEQTSPSFMSTAWLVFKTFFASLLPEGPPAIAN
notes: not shown: HA tag at the N-terminal

What was measured:
[1] = test system: Embryonic fibroblasts (MEFs) from wild-type and synoviolin gene-deficient mice; experiment: Effect of a γ-secretase inhibitor on cell proliferation activity (Alamer Blue) in wild-type and synoviolin-deficient MEFs; type: cell-based, mouse; conditions: MEFs 1×10^3 cells/well, treated 24 hours, Alamer Blue absorbance after 2 hours; Syno −/− compared with Syno +/+ (FIG. 5)
Protocol: Since there are ethical objections to sensitivity measurement tests using the brains of Alzheimer's patients, another evaluation system needs to be used for evaluating the sensitivity of the secretase inhibitor. The inventors therefore used an evaluation system in which cells were treated with a secretase inhibitor and cell proliferation was used as the marker of secretase inhibition. There are no particular limits on the type of secretase here, and examples include β-secretase and γ-secretase. Consequently, the secretase inhibitor can be either a β-secretase inhibitor or a γ-secretase inhibitor. There are no particular limits on the secretase inhibitor, and examples include L-685,458 (Peptide Institute), (3,5-Difluorophenylacetyl)-Ala-Phg-OBu^t [DAPT] (Peptide Institute), Lys-Thr-Glu-Glu-Ile-Ser-Glu-Val-Asn-Sta-Val-Ala-Glu-Phe (Peptide Institute), Z-Leu-Leu-Nle-CHO (Wako) and the like.
Secretase activity is judged to have been inhibited when cell proliferation activity is suppressed. […]
Embryonic fibroblasts (MEFs) obtained from synoviolin gene-introduced mice (wild-type mice) and synoviolin gene-deficient mice were inoculated to 1×10^3 cells/well on 96-well plates, and cultured overnight. After culture the cells were treated with a γ-secretase inhibitor (Z-Leu-Leu-Nle-CHO, Wako) and cultured for 24 hours, after which Alamer Blue was added and absorbance was measured after 2 hours.

FLAG-tagged synoviolin = target: T1, FLAG-tagged synoviolin (human, UniProt Q86TM6 1-617); experiment: co-immunoprecipitation (anti-HA or anti-FLAG) and Western blotting from HEK293T cells
T1 construct: not shown: FLAG tag
Protocol: An HA tag was attached to the N-terminal of this gene, which was inserted into a pcDNA3 vector. Next, Ha-tagged Herp, Herp(-bind) and a blank vector were each strongly expressed together with FLAG-tagged synoviolin in HEK293T cells. After 24 hours whole cell extract (WCE) was extracted, expression of each protein was confirmed, and immunoprecipitation was performed with anti-HA antibodies or anti-FLAG antibodies.

T1 sequence (Q86TM6 whole entry E545G): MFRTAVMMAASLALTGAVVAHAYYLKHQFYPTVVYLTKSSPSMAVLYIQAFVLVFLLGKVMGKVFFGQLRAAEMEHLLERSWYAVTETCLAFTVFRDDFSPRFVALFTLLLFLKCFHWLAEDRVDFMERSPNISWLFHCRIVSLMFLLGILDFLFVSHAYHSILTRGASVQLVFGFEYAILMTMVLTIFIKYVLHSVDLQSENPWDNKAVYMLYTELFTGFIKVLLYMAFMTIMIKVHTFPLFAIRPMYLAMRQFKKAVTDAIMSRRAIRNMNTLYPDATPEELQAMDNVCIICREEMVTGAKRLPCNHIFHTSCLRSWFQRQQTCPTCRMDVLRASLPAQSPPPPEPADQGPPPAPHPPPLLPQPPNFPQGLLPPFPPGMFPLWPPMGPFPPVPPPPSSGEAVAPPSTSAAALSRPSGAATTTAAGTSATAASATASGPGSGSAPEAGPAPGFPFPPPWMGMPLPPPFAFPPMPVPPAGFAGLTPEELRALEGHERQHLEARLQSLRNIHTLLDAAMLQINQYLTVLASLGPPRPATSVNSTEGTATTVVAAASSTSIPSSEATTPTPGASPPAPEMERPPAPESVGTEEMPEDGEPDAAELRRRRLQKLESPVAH

| Molecule | effect of the γ-secretase inhibitor on cell proliferation activity [1] | binding result (FLAG-tagged synoviolin) |
| --- | --- | --- |
| CCCC[C@@H](C=O)NC(=O)[C@H](CC(C)C)NC(=O)[C@H](CC(C)C)NC(=O)OCc1ccccc1 [Z-Leu-Leu-Nle-CHO] (Cbz-Leu-Leu-[Nle]-aldehyde) | greater in the cells derived from synoviolin-deficient mice than in the cells derived from wild-type mice |  |
| B1 |  | no binding |
